Laboratory results reported in patent publication US20250360167A1 (Keryx Biopharmaceuticals, Inc., priority 2013, published 2025).

Columns and labels:
serum calcium = test: Phase 3 trial (Example 1): serum calcium; format: in vivo, human
Procedure: Serum phosphorus and calcium were performed at Screening (Visit 0); weekly during the Washout Period after Visit 1 (Week −2); at Visit 4 (Randomization Visit); at Visits 5 (Week 1), 6 (Week 2), 7 (Week 4), 8 (Week 6), 9 (Week 8), 10 (Week 10), 11 (Week 12), 12 (Week 16), 13 (Week 20), 14 (Week 24), 15 (Week 28), 16 (Week 32), 17 (Week 36), 18 (Week 40), 19 (Week 44), 20 (Week 48), and 21 (Week 52) of the 52-week Safety Assessment Period; and at Visits 22 (Week 53), 23 (Week 54), 24 (Week 55) and 25 (Week 56) of the Efficacy Assessment Period.
These variables will be analyzed using LOCF methodology. ANCOVA will be employed. The model will include treatment (fixed effect), and Visit-4 baseline (covariate). An analysis using MMRM method will be conducted as a sensitivity analysis. The least square mean estimates of the treatment effects as well as the 2-sided 95% confidence intervals (CI) of the treatment effects will be derived.
• 1. Change in serum calcium concentration at Weeks 12, 24, 36, 48, and 52 as compared to baseline (Visit 4). This variable will be analyzed using LOCF methodology. ANCOVA will be employed. The model will include treatment (fixed effect), and baseline (covariate). • 2. Change in ferritin, and TSAT at Weeks 12, 24, 36 and 48 as compared to baseline (Visit 4). This variable will be analyzed using LOCF methodology. ANCOVA will be employed. The model will include treatment (fixed effect), and baseline (covariate). • 3. Change in serum iron and TIBC at Weeks 12, 24, 36, 48, and 52 as compared to baseline (Visit 4). This variable will be analyzed using LOCF methodology. ANCOVA will be employed. The model will include treatment (fixed effect), and baseline (covariate). • 4. Change in Ca x P product at Weeks 12, 24, 36, 48, and 52 as compared to baseline (Visit 4). This variable will be analyzed using LOCF methodology. ANCOVA will be employed. The model will include treatment (fixed effect), and baseline (covariate). • 5. Change in iPTH at Weeks 12, 36, 52, and 56 as compared to baseline (Visit 4). This variable will be analyzed using LOCF methodology. ANCOVA will be employed. The model will include treatment (fixed effect), and baseline (covariate). • 6. Change in serum […], vitamin A, vitamin B-12, vitamin E, vitamin K and folic acid at Weeks 12, 36, and 52 as compared to baseline (Visit 4). This variable will be analyzed using LOCF methodology. ANCOVA will be employed. The model will include treatment (fixed effect), and baseline (covariate). • 7. Change in serum bicarbonate concentration at Weeks 12, 36, and 52 as compared to baseline (Visit 4). This variable will be analyzed using LOCF methodology. ANCOVA will be employed. The model will include treatment (fixed effect), and baseline (covariate). • 8. Change in IV iron intake at Weeks 12, 24, 36, 48, and 52 as compared to baseline (Visit 4). This variable will be analyzed using LOCF methodology. ANCOVA will be employed. The model will include treatment (fixed effect), and baseline (covariate). • 9. Change in the use of EPO (ESA) administered at Weeks 12, 24, 36, 48, and 52 as compared to baseline (Visit 4). This variable will be analyzed using LOCF methodology. ANCOVA will be employed. The model will include treatment (fixed effect), and baseline (covariate). • 10. Change in the use of Vitamin D supplementation (and its analogs) and Sensipar (cinacalcet) at Weeks 12, 24, 36, 48, and 52 as compared to baseline (Visit 4). This variable will be analyzed using LOCF methodology. ANCOVA will be employed. The model will include treatment (fixed effect), and baseline (covariate). • 11. Change in LDL, HDL, and triglycerides at Weeks 12, 36, and 52 as compared to baseline (Visit 4). This variable will be analyzed using LOCF methodology. ANCOVA will be employed. The model will include treatment (fixed effect), and baseline (covariate).

[1] = tested on: intact fibroblast growth factor 23 (FGF23); test: Phase 2 trial (Example 2): intact FGF-23; format: in vivo, human; conditions: n = 63
Procedure: Change in calcium x phosphorus product, serum calcium, estimated glomerular filtration rate (eGFR), urinary phosphorus, bicarbonate levels, serum iron, UIBC, TIBC, iPTH, and intact fibroblast growth factor 23 (FGF23) from baseline (Visit 4, Week 0) to the end of treatment (Visit 11, Week 12) are also assessed as secondary endpoints.
The key secondary endpoints of the study were the mean changes in ferritin, hemoglobin and FGF-23 from baseline to the end of the 12-week treatment period versus placebo in the ITT group.

iron (+3), x (1, 2, 3-propanetricarboxylic acid, 2-hydroxy-), y (H2O) [KRX-0502]
Calcium, Mean (serum calcium; Baseline, Table 12): 8.843 mg/dL | Calcium, Median (serum calcium; Baseline, Table 12): 8.900 mg/dL | Calcium, Week 12 Change from Baseline, Mean (serum calcium; Table 12): 0.245 mg/dL | Calcium, Week 12 Change from Baseline, Median (serum calcium; Table 12): 0.200 mg/dL | Calcium, LS Mean (serum calcium; Week 12, ANCOVA, Table 12): 9.11 mg/dL | Calcium, Mean (serum calcium; Week 12, Table 12): 9.089 mg/dL | Calcium, Median (serum calcium; Week 12, Table 12): 9.100 mg/dL | Calcium, Treatment Differences, LS Mean (KRX-0502) − LS Mean (Control) (serum calcium; Week 12, control = sevelamer carbonate as a single agent): -0.04 mg/dL | Mean Intact FGF-23, Baseline ([1]; Baseline): 319 pg/mL | Mean Intact FGF-23, End of Treatment (Week 12) ([1]; Week 12, last observation carried forward): 200 pg/mL
